# Source: PMC5218480 (PLoS ONE, 2017)
# System: MV-4-11 cells
# Test: Gene expression microarray analysis (Affymetrix PrimeView) and GSEA
# Assay type: cell-based, human
# Set-up: RFU PODN (11730768_x_at) / Fold change /veh PODN (11730768_x_at) / RFU LINC00158 (11744669_a_at) / Fold change /veh LINC00158 (11744669_a_at) / RFU DUSP10 (11751237_a_at) / Fold change /veh DUSP10 (11751237_a_at) / RFU ID3 (11757404_x_at) / Fold change /veh ID3 (11757404_x_at) / RFU PLEKHG5 (11737974_s_at) / Fold change /veh PLEKHG5 (11737974_s_at) / RFU LRRC4B (11730491_at) / Fold change /veh LRRC4B (11730491_at) / RFU GIMAP4 (11747438_a_at) / Fold change /veh GIMAP4 (11747438_a_at) / RFU KRT8 (11758183_x_at) / Fold change /veh KRT8 (11758183_x_at) / RFU CNN1 (11734310_a_at) / Fold change /veh CNN1 (11734310_a_at) / RFU VPS37D (11726825_at) / Fold change /veh VPS37D (11726825_at) / RFU C10orf10 (11716522_x_at) / Fold change /veh C10orf10 (11716522_x_at) / RFU KIR2DL2 /// KIR2DL4 /// KIR2DL5A /// KIR2DL5B /// KIR2DS1 /// KIR2DS2 /// KIR2DS3 /// KIR2DS4 /// KIR3DL3 /// KIR3DL3 /// KIR3DS1 (11738374_at) / Fold change /veh KIR2DL2 /// KIR2DL4 /// KIR2DL5A /// KIR2DL5B /// KIR2DS1 /// KIR2DS2 /// KIR2DS3 /// KIR2DS4 /// KIR3DL3 /// KIR3DL3 /// KIR3DS1 (11738374_at) / RFU C1QL1 (11718748_at) / Fold change /veh C1QL1 (11718748_at) / RFU TMPRSS4 (11747572_a_at) / Fold change /veh TMPRSS4 (11747572_a_at) / RFU HAMP (11756126_x_at) / Fold change /veh HAMP (11756126_x_at) / RFU RNFT2 (11725882_a_at) / Fold change /veh RNFT2 (11725882_a_at) / RFU NR4A2 (11747474_a_at) / Fold change /veh NR4A2 (11747474_a_at) / RFU ABCC12 (11746883_a_at) / Fold change /veh ABCC12 (11746883_a_at) / RFU TMEM136 (11760407_x_at) / Fold change /veh TMEM136 (11760407_x_at) / RFU CLDN22 /// WWC2 (11732394_at) / Fold change /veh CLDN22 /// WWC2 (11732394_at) / RFU HLA-DPB1 (11760878_x_at) / Fold change /veh HLA-DPB1 (11760878_x_at) / RFU SPINT1 (11716480_a_at) / Fold change /veh SPINT1 (11716480_a_at) / RFU GAP43 (11754022_s_at) / Fold change /veh GAP43 (11754022_s_at) / RFU A4GNT (11735810_at) / Fold change /veh A4GNT (11735810_at) / RFU PRB3 (11715151_x_at) / Fold change /veh PRB3 (11715151_x_at) / RFU TUBB4B (11761932_at) / Fold change /veh TUBB4B (11761932_at) / RFU CAPN14 (11732068_a_at) / Fold change /veh CAPN14 (11732068_a_at) / RFU TMCC2 (11721928_a_at) / Fold change /veh TMCC2 (11721928_a_at) / RFU IRGQ (11745062_a_at) / Fold change /veh IRGQ (11745062_a_at) / RFU FAM174B (11720279_a_at) / Fold change /veh FAM174B (11720279_a_at) / RFU TMPRSS4 (11748680_a_at) / Fold change /veh TMPRSS4 (11748680_a_at) / RFU FAM212B (11763350_a_at) / Fold change /veh FAM212B (11763350_a_at) / RFU PLEKHG5 (11743358_a_at) / Fold change /veh PLEKHG5 (11743358_a_at) / RFU ZSCAN30 (11745921_a_at) / Fold change /veh ZSCAN30 (11745921_a_at) / RFU CMKLR1 (11741424_a_at) / Fold change /veh CMKLR1 (11741424_a_at) / RFU LOC101060620 /// MAPK8IP1 (11723275_at) / Fold change /veh LOC101060620 /// MAPK8IP1 (11723275_at) / RFU SPTSSB (11747773_x_at) / Fold change /veh SPTSSB (11747773_x_at) / RFU PRSS12 (11739890_at) / Fold change /veh PRSS12 (11739890_at) / RFU BIN1 (11741810_x_at) / Fold change /veh BIN1 (11741810_x_at) / RFU WNT11 (11732464_a_at) / Fold change /veh WNT11 (11732464_a_at) / RFU C10orf10 (11716521_a_at) / Fold change /veh C10orf10 (11716521_a_at) / RFU C5orf56 (11738089_at) / Fold change /veh C5orf56 (11738089_at) / RFU CYB561 (11721691_x_at) / Fold change /veh CYB561 (11721691_x_at) / RFU ANKRD19P (11752326_a_at) / Fold change /veh ANKRD19P (11752326_a_at) / RFU OR2T12 /// OR2T33 /// OR2T8 (11738714_s_at) / Fold change /veh OR2T12 /// OR2T33 /// OR2T8 (11738714_s_at) / RFU VCAN (11748164_a_at) / Fold change /veh VCAN (11748164_a_at) / RFU JSRP1 (11732532_at) / Fold change /veh JSRP1 (11732532_at) / RFU KRTAP10-11 (11738290_x_at) / Fold change /veh KRTAP10-11 (11738290_x_at) / RFU MYO3A (11730013_a_at) / Fold change /veh MYO3A (11730013_a_at) / RFU EBF3 (11725865_a_at) / Fold change /veh EBF3 (11725865_a_at) / RFU CAMK2N1 (11719241_x_at) / Fold change /veh CAMK2N1 (11719241_x_at) / RFU C5orf56 (11738088_a_at) / Fold change /veh C5orf56 (11738088_a_at) / RFU OLFML3 (11715873_a_at) / Fold change /veh OLFML3 (11715873_a_at) / RFU LOC100653217 /// NTM (11731650_a_at) / Fold change /veh LOC100653217 /// NTM (11731650_a_at) / RFU MAPK11 (11762145_a_at) / Fold change /veh MAPK11 (11762145_a_at) / RFU FIZ1 (11724087_x_at) / Fold change /veh FIZ1 (11724087_x_at) / RFU OASL (11726364_x_at) / Fold change /veh OASL (11726364_x_at) / RFU SOX15 (11748057_x_at) / Fold change /veh SOX15 (11748057_x_at) / RFU CD79A (11719716_a_at) / Fold change /veh CD79A (11719716_a_at) / RFU HIST1H1D (11736915_at) / Fold change /veh HIST1H1D (11736915_at) / RFU CASKIN2 (11723855_a_at) / Fold change /veh CASKIN2 (11723855_a_at) / RFU LOC730098 (11760151_x_at) / Fold change /veh LOC730098 (11760151_x_at) / RFU OR4N2 (11742367_at) / Fold change /veh OR4N2 (11742367_at) / RFU PRRT2 (11749266_a_at) / Fold change /veh PRRT2 (11749266_a_at) / RFU SNX32 (11753110_a_at) / Fold change /veh SNX32 (11753110_a_at) / RFU CDHR5 (11726645_a_at) / Fold change /veh CDHR5 (11726645_a_at) / RFU RCAN1 (11760418_a_at) / Fold change /veh RCAN1 (11760418_a_at) / RFU FAM167A (11723789_a_at) / Fold change /veh FAM167A (11723789_a_at) / RFU FAM26E (11764081_at) / Fold change /veh FAM26E (11764081_at) / RFU ISYNA1 (11749810_s_at) / Fold change /veh ISYNA1 (11749810_s_at) / RFU ACY1 (11761880_at) / Fold change /veh ACY1 (11761880_at) / RFU 11764098_at / Fold change /veh 11764098_at / RFU SAMD14 (11745864_x_at) / Fold change /veh SAMD14 (11745864_x_at) / RFU NPB (11741838_a_at) / Fold change /veh NPB (11741838_a_at) / RFU TMPRSS6 (11731388_a_at) / Fold change /veh TMPRSS6 (11731388_a_at) / RFU KRTAP10-2 (11738614_at) / Fold change /veh KRTAP10-2 (11738614_at) / RFU ARHGAP8 /// PRR5-ARHGAP8 (11727945_x_at) / Fold change /veh ARHGAP8 /// PRR5-ARHGAP8 (11727945_x_at) / RFU KRTAP5-7 /// NADSYN1 (11734609_at) / Fold change /veh KRTAP5-7 /// NADSYN1 (11734609_at) / RFU RASL12 (11751679_a_at) / Fold change /veh RASL12 (11751679_a_at) / RFU CDKN2B (11736163_a_at) / Fold change /veh CDKN2B (11736163_a_at) / RFU PRF1 (11729649_at) / Fold change /veh PRF1 (11729649_at) / RFU, ZNF638 /// ZNF638-IT1 / Fold change vs veh, ZNF638 /// ZNF638-IT1 / RFU, PANK3 / Fold change vs veh, PANK3 / RFU, SH3YL1 / Fold change vs veh, SH3YL1 / RFU, ZEB2 / Fold change vs veh, ZEB2 / RFU, NRIP1 / Fold change vs veh, NRIP1 / RFU, PTTG1IP / Fold change vs veh, PTTG1IP / RFU, CAPN2 / Fold change vs veh, CAPN2 / RFU, MED14 / Fold change vs veh, MED14 / RFU, SNORA58 / Fold change vs veh, SNORA58 / RFU, C1orf63 / Fold change vs veh, C1orf63 / RFU, LRRFIP1 / Fold change vs veh, LRRFIP1 / RFU, NDUFAF7 / Fold change vs veh, NDUFAF7 / RFU, SLC12A2 / Fold change vs veh, SLC12A2 / RFU, IBTK / Fold change vs veh, IBTK / RFU, ESF1 / Fold change vs veh, ESF1 / Fold change vs veh, TMEM50B / RFU, TAOK1 / Fold change vs veh, TAOK1 / RFU, ACBD3 / Fold change vs veh, ACBD3 / RFU, TMA16 / Fold change vs veh, TMA16 / RFU, RWDD3 / Fold change vs veh, RWDD3 / RFU, BCAT1 / Fold change vs veh, BCAT1 / RFU, EDEM3 / Fold change vs veh, EDEM3 / RFU, TMEM33 / Fold change vs veh, TMEM33 / RFU, WDR75 / Fold change vs veh, WDR75 / RFU, AHCTF1 / Fold change vs veh, AHCTF1 / RFU, TFRC / Fold change vs veh, TFRC / RFU, ZDHHC17 / Fold change vs veh, ZDHHC17 / RFU, NOM1 / Fold change vs veh, NOM1 / RFU, ARL8B / Fold change vs veh, ARL8B / RFU, ZBTB11 / Fold change vs veh, ZBTB11 / RFU, TAMM41 / Fold change vs veh, TAMM41 / RFU, KIAA1704 /// LOC100996395 / Fold change vs veh, KIAA1704 /// LOC100996395 / RFU, ING1 / Fold change vs veh, ING1 / RFU, TRMT61B / Fold change vs veh, TRMT61B / RFU, FUBP3 / Fold change vs veh, FUBP3 / RFU, TP53 / Fold change vs veh, TP53 / RFU, TNKS2 / Fold change vs veh, TNKS2 / RFU, ZFP14 / Fold change vs veh, ZFP14 / RFU, ACTR2 / Fold change vs veh, ACTR2 / RFU, PPP3R1 / Fold change vs veh, PPP3R1 / RFU, PIK3R1 / Fold change vs veh, PIK3R1 / RFU, HNRNPA1 / Fold change vs veh, HNRNPA1 / RFU, RNF170 / Fold change vs veh, RNF170 / RFU, ZNF28 / Fold change vs veh, ZNF28 / RFU, RNGTT / Fold change vs veh, RNGTT / RFU, OGT / Fold change vs veh, OGT / RFU, BRD1 / Fold change vs veh, BRD1 / RFU, MARS / Fold change vs veh, MARS / RFU, ZNF655 / Fold change vs veh, ZNF655 / RFU, FAHD1 / Fold change vs veh, FAHD1 / RFU, BDP1 / Fold change vs veh, BDP1 / RFU, LRRCC1 / Fold change vs veh, LRRCC1 / RFU, ARID1A / Fold change vs veh, ARID1A / RFU, ZNF146 / Fold change vs veh, ZNF146 / RFU, ZNF330 / Fold change vs veh, ZNF330 / RFU, GPN3 / Fold change vs veh, GPN3 / RFU, C9orf123 / Fold change vs veh, C9orf123 / RFU, N4BP2L2 / Fold change vs veh, N4BP2L2 / RFU, ARFIP1 / Fold change vs veh, ARFIP1 / RFU, FAM179B / Fold change vs veh, FAM179B / RFU, BCL10 / Fold change vs veh, BCL10 / RFU, UHRF1BP1L / Fold change vs veh, UHRF1BP1L / RFU, BET1 / Fold change vs veh, BET1 / RFU, CNOT2 / Fold change vs veh, CNOT2 / RFU, ZNF268 / Fold change vs veh, ZNF268 / Fold change vs veh, ZNF507 / RFU, DGCR2 / Fold change vs veh, DGCR2 / RFU, WDSUB1 / Fold change vs veh, WDSUB1 / Fold change vs veh, HSP90B1 /// MIR3652 / RFU, ADSS / Fold change vs veh, ADSS / RFU, GK / Fold change vs veh, GK / RFU, ZNF148 / Fold change vs veh, ZNF148 / RFU, TAF9 / Fold change vs veh, TAF9 / RFU, SLC1A5 / Fold change vs veh, SLC1A5 / RFU, SLMO2 / Fold change vs veh, SLMO2 / RFU, ABCC4 / Fold change vs veh, ABCC4 / RFU, LOC101060439 /// RAP1B / Fold change vs veh, LOC101060439 /// RAP1B / RFU, RFX7 / Fold change vs veh, RFX7 / RFU, GTPBP10 / Fold change vs veh, GTPBP10 / RFU, CNEP1R1 / Fold change vs veh, CNEP1R1 / RFU, BIVM-ERCC5 /// ERCC5 / Fold change vs veh, BIVM-ERCC5 /// ERCC5 / RFU, ILF3 / Fold change vs veh, ILF3 / RFU 11762660_at / Fold change /veh 11762660_at / RFU VCAN (11757783_s_at) / Fold change /veh VCAN (11757783_s_at) / RFU DDX43 (11728927_at) / Fold change /veh DDX43 (11728927_at) / RFU KRT8 (11758188_x_at) / Fold change /veh KRT8 (11758188_x_at) / RFU NKD1 (11759106_at) / Fold change /veh NKD1 (11759106_at) / RFU SRD5A1 (11742802_a_at) / Fold change /veh SRD5A1 (11742802_a_at) / RFU TPSAB1 /// TPSB2 (11721975_s_at) / Fold change /veh TPSAB1 /// TPSB2 (11721975_s_at) / RFU GSTM3 (11746129_a_at) / Fold change /veh GSTM3 (11746129_a_at) / RFU IL23R (11737362_x_at) / Fold change /veh IL23R (11737362_x_at) / RFU TMEM51 (11727254_a_at) / Fold change /veh TMEM51 (11727254_a_at) / RFU PIWIL2 (11732686_x_at) / Fold change /veh PIWIL2 (11732686_x_at) / RFU ORM1 (11744905_x_at) / Fold change /veh ORM1 (11744905_x_at) / RFU CCDC152 (11743942_at) / Fold change /veh CCDC152 (11743942_at) / RFU ECM1 (11717891_a_at) / Fold change /veh ECM1 (11717891_a_at) / RFU IL23R (11748794_a_at) / Fold change /veh IL23R (11748794_a_at) / RFU TNFAIP8L3 (11732012_x_at) / Fold change /veh TNFAIP8L3 (11732012_x_at) / RFU MBOAT4 (11741988_at) / Fold change /veh MBOAT4 (11741988_at) / RFU 11764193_at / Fold change /veh 11764193_at / RFU TMEM53 (11763286_at) / Fold change /veh TMEM53 (11763286_at) / RFU MAGEB2 (11727129_at) / Fold change /veh MAGEB2 (11727129_at) / RFU TMEM200A (11744735_a_at) / Fold change /veh TMEM200A (11744735_a_at) / RFU CCDC152 (11751479_a_at) / Fold change /veh CCDC152 (11751479_a_at) / RFU FAM211A (11726209_a_at) / Fold change /veh FAM211A (11726209_a_at) / RFU RGS16 (11746705_a_at) / Fold change /veh RGS16 (11746705_a_at) / RFU VCAN (11755009_s_at) / Fold change /veh VCAN (11755009_s_at) / RFU RHOB (11743442_s_at) / Fold change /veh RHOB (11743442_s_at) / RFU RGS16 (11720943_a_at) / Fold change /veh RGS16 (11720943_a_at) / RFU RGS16 (11720944_at) / Fold change /veh RGS16 (11720944_at) / RFU, VPS4B / Fold change vs veh, VPS4B / RFU, CREB1 / Fold change vs veh, CREB1 / RFU, DNAJC13 / Fold change vs veh, DNAJC13 / RFU, GNAQ / Fold change vs veh, GNAQ / RFU, CDK5R1 / Fold change vs veh, CDK5R1 / RFU, ZRANB3 / Fold change vs veh, ZRANB3 / RFU, CUL4A / Fold change vs veh, CUL4A / RFU, CCNY / Fold change vs veh, CCNY / RFU, UFL1 / Fold change vs veh, UFL1 / RFU, COG3 / Fold change vs veh, COG3 / RFU, DIAPH2 / Fold change vs veh, DIAPH2 / RFU, SKA2 / Fold change vs veh, SKA2 / RFU, AFF3 / Fold change vs veh, AFF3 / RFU, LMF1 / Fold change vs veh, LMF1 / RFU, IPO11 / Fold change vs veh, IPO11 / RFU, DFFB / Fold change vs veh, DFFB / RFU, FOXP1 / Fold change vs veh, FOXP1 / RFU, CARD8 / Fold change vs veh, CARD8 / RFU, STRN3 / Fold change vs veh, STRN3 / RFU, ADK / Fold change vs veh, ADK / RFU, RASSF2 / Fold change vs veh, RASSF2 / RFU, WIPF1 / Fold change vs veh, WIPF1 / RFU, LARP1B / Fold change vs veh, LARP1B / RFU, RASA1 / Fold change vs veh, RASA1 / RFU, RB1 / Fold change vs veh, RB1 / RFU, PPFIA1 / Fold change vs veh, PPFIA1 / RFU, MAT2A / Fold change vs veh, MAT2A / RFU, CCT5 / Fold change vs veh, CCT5 / RFU, WDR92 / Fold change vs veh, WDR92 / RFU, CUX1 / Fold change vs veh, CUX1 / RFU, TTC7A / Fold change vs veh, TTC7A / RFU, TMEM135 / Fold change vs veh, TMEM135 / RFU, DEPTOR / Fold change vs veh, DEPTOR / RFU, CPM / Fold change vs veh, CPM / RFU, DNAJB6 / Fold change vs veh, DNAJB6 / RFU, CACNA2D3 / Fold change vs veh, CACNA2D3 / RFU, DTX4 / Fold change vs veh, DTX4 / RFU, TFCP2 / Fold change vs veh, TFCP2 / RFU, GMCL1 /// GMCL1P1 / Fold change vs veh, GMCL1 /// GMCL1P1 / RFU, AEBP2 / Fold change vs veh, AEBP2 / RFU, SNHG1 /// SNORD22 /// SNORD25 /// SNORD26 /// SNORD27 /// SNORD28 /// SNORD29 /// SNORD31 / Fold change vs veh, SNHG1 /// SNORD22 /// SNORD25 /// SNORD26 /// SNORD27 /// SNORD28 /// SNORD29 /// SNORD31 / Fold change (Aza/veh), C12orf56 (ProbeSet 11735607_a_at) / Fold change (ACY-1035/veh), C12orf56 (ProbeSet 11735607_a_at) / Fold change (Aza/veh), FGFR1OP (ProbeSet 11751329_s_at) / Fold change (ACY-1035/veh), FGFR1OP (ProbeSet 11751329_s_at) / Fold change (Aza/veh), VPS36 (ProbeSet 11739960_a_at) / Fold change (ACY-1035/veh), VPS36 (ProbeSet 11739960_a_at) / RFU SYPL1 (11715823_x_at) / Fold change /veh SYPL1 (11715823_x_at) / RFU IGFBP7 (11715501_s_at) / Fold change /veh IGFBP7 (11715501_s_at) / RFU REEP3 (11722064_at) / Fold change /veh REEP3 (11722064_at) / RFU IGLL1 (11728026_x_at) / Fold change /veh IGLL1 (11728026_x_at): dose or concentration left out as unconfirmed
# Settings: ProbeSet 11746640_a_at; LIST D
structure (smiles),measurement,value
Nc1ccc(-c2cccs2)cc1NC(=O)c1ccc2c(c1)cc(C1CC1)n2CCN1CCOCC1 [ACY-1035],"Fold change vs veh, RASSF2",0.86
